Measurements taken from ChEMBL document CHEMBL4152187, “Plant-derived mPGES-1 inhibitors or suppressors: A new emerging trend in the search for small molecules to combat inflammation” (Eur J Med Chem, 2018).
Each block holds one molecule with its values, some of them ahead of it.

What was measured:
J774 [1] = assay: Inhibition of LPS-stimulated mPGES1 expression in mouse J774 cells; format: functional, cell-based
J774 [2] = assay: Inhibition of LPS-induced mPGES1 mRNA expression in mouse J774 cells at 100 uM measured after 6 to 24 hrs by qRT-PCR analysis; format: functional
Prostaglandin E synthase [3] = target: T1, Prostaglandin E synthase (Homo sapiens, UniProt O14684); assay: Inhibition of mPGES1 in human A549 cell microsomal membrane using pGH2 as substrate pretreated for 15 mins followed by substrate addition and measured after 1 min by RP-HPLC method
T1 sequence (O14684 whole entry): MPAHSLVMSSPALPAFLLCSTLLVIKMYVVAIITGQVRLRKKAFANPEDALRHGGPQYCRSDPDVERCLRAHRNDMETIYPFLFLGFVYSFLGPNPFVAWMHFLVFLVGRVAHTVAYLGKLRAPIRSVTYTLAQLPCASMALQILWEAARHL

Prostaglandin E synthase [4] = target: T1, Prostaglandin E synthase; assay: Inhibition of mPGES1 in human A549 cell microsomes
Rattus norvegicus [5] = assay: Antiinflammatory activity against carrageenan-induced pleurisy in rat assessed as reduction in cell infiltration at 3.6 mg/kg, ip relative to control; format: functional; design: scale not given: the % may be the effect or the level left
Rattus norvegicus [6] = assay: Antiinflammatory activity against carrageenan-induced pleurisy in rat assessed as reduction in exudate formation at 3.6 mg/kg, ip relative to control; format: functional; design: scale not given: the % may be the effect or the level left
Rattus norvegicus [7] = assay: Antiinflammatory activity against carrageenan-induced pleurisy in rat assessed as reduction in PGE2 level at 3.6 mg/kg, ip relative to control; format: functional; design: scale not given: the % may be the effect or the level left
[8] = target: T2, Prostaglandin E synthase (Homo sapiens) (UniProt O14684); assay: Inhibition of mPGES1 in human HeLa cells assessed as reduction in PGE2 production at 50 uM by enzyme immunoassay relative to control; format: cell-based
T2 sequence (whole entry): T1 sequence (O14684 whole entry)

[9] = target: Prostaglandin G/H synthase 2 (Homo sapiens) (UniProt P35354); assay: Inhibition of COX2 in human Hs294 cells assessed as reduction in PGE2 production up to 20 uM by immunoblot analysis relative to control
Sequence of Prostaglandin G/H synthase 2 (Homo sapiens) (P35354 whole entry, looked up): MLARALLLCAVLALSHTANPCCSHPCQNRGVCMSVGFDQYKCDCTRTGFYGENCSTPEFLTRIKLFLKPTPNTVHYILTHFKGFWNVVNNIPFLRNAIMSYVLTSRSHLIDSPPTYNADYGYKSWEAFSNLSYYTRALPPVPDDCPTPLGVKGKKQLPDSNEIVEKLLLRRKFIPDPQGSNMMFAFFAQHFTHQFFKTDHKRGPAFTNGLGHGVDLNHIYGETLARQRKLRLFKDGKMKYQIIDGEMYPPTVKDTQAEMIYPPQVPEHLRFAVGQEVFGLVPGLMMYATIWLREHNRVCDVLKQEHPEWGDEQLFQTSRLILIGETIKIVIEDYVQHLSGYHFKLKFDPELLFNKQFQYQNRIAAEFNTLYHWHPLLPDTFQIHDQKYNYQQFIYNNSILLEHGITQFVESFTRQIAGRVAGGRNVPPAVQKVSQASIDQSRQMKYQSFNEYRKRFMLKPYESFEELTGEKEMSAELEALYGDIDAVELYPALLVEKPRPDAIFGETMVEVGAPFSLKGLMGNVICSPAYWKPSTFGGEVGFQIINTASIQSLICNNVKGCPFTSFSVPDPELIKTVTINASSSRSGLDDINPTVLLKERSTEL

[10] = target: Prostaglandin G/H synthase 2 (Homo sapiens) (UniProt P35354); assay: Inhibition of COX2 in human A375 cells assessed as reduction in PGE2 production up to 20 uM by immunoblot analysis relative to control

IC50 (Prostaglandin E synthase [3]): 300 nM
Structure (SMILES): COc1cc(/C=C/C(=O)CC(=O)/C=C/c2ccc(O)c(OC)c2)ccc1O [CURCUMIN]

IC50 (Prostaglandin E synthase [3]): 300 nM
Structure (SMILES): C=C(C)[C@H](CC=C(C)C)C[C@]12C[C@H](CC=C(C)C)C(C)(C)[C@](CC=C(C)C)(C(=O)C(C(=O)c3ccc(O)c(O)c3)=C1O)C2=O

IC50 (Prostaglandin E synthase [4]): 200 nM
Structure (SMILES): CCCCCCCCCCCC1=C(O)C(=O)C=C(O)C1=O [EMBELIN]

IC50 (Prostaglandin E synthase [3]): 1150 nM
Structure (SMILES): COC(=O)c1c(C)cc(OC(=O)c2c(C)cc(O)c(C=O)c2O)c(C)c1O [ATRANORIN]

IC50 (Prostaglandin E synthase [3]): 430 nM
Structure (SMILES): CCCCCc1cc(OC(=O)c2c(O)cc(OC)cc2CCCCC)cc(O)c1C(=O)O

IC50 (Prostaglandin E synthase [3]): 10000 nM
Structure (SMILES): C[C@H]1[C@H](C)CC[C@]2(C)CC[C@]3(C)C(=CC(=O)[C@@H]4[C@@]5(C)CC[C@@H](O)[C@](C)(C(=O)O)[C@@H]5CC[C@]43C)[C@H]12 [11-KETO BOSWELLIC ACID]

inhibition [8]: 71.9%
inhibition [9]: 16 to 63%
inhibition [10]: 15 to 75%
Structure (SMILES): COc1ccc2cc3[n+](cc2c1OC)CCc1cc2c(cc1-3)OCO2

IC50 (Prostaglandin E synthase [3]): 400 nM
Structure (SMILES): CCCCCC(=O)Cc1cc(O)cc(O)c1C(=O)Oc1cc(O)c(C(=O)O)c(CCCCC)c1

Further lines, the molecule ahead of its results:

Structure (SMILES): COc1cc(C[C@@H]2COC(=O)[C@]2(O)Cc2ccc(O)c(OC)c2)ccc1O
IC50 (J774 [1]): 14000 nM

Structure (SMILES): COc1cc(-c2oc3cc(O)cc(O)c3c(=O)c2O)ccc1O [ISORHAMNETIN]
inhibition at 100 µM (J774 [2]): > 50%

Structure (SMILES): CC(=O)O[C@@H]1CC[C@@]2(C)[C@@H](CC[C@]3(C)[C@@H]2CC=C2[C@@H]4[C@@H](C)[C@H](C)CC[C@]4(C)CC[C@]23C)[C@@]1(C)C(=O)O
IC50 (Prostaglandin E synthase [3]): ≥ 30000 nM

Structure (SMILES): O=c1c(O)c(-c2ccc(O)cc2)oc2cc(O)cc(O)c12 [KAEMPFEROL]
inhibition at 100 µM (J774 [2]): > 50%

Structure (SMILES): O=C(O[C@@H]1Cc2c(O)cc(O)cc2O[C@@H]1c1cc(O)c(O)c(O)c1)c1cc(O)c(O)c(O)c1 [EPIGALOCATECHIN GALLATE]
IC50 (Prostaglandin E synthase [3]): 1800 nM

Structure (SMILES): CCc1oc(=O)c(Cc2c(O)c(CC=C(C)C)c(O)c(C(C)=O)c2O)c(O)c1C [ARZANOL]
Activity (Rattus norvegicus [5]): 48%
Activity (Rattus norvegicus [6]): 59%
Activity (Rattus norvegicus [7]): 47%
